{
  "source": "patent US8192962B2",
  "about": "“Processes for detecting toxic substances” (Daikin Industries, Ltd., priority 2001, dated 2012)",
  "system": "Mitochondria-located protein genes",
  "assay": "DNA chip mRNA expression in yeast, mitochondria-located protein genes (Table 2)",
  "type": "cell-based, Saccharomyces cerevisiae S288C",
  "conditions": "cells incubated two hours with the chemical substance",
  "procedure,_shortened": "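First, S288C yeast grown in YPD at 25° C. are dosed in log phase with one toxicant (growth-inhibiting, not lethal) for 2 h. Next, total RNA is extracted and poly(A) mRNA isolated and reverse-transcribed with Cy3/Cy5-dUTP. Finally, whole-genome chip fluorescence is read relative to unexposed cells.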",
  "data": [
    {"smiles": "CCCCC[C@H](O)CC(=O)CCc1ccc(O)c(OC)c1", "note": "[(13), gingerol]", "values": [
      {"measurement": "The level of expressed mRNA in the presence of chemical substance/The level of expressed mRNA in the absence of chemical substance", "setting": "yeast gene YAL039C", "value": 1.6},
      {"measurement": "The level of expressed mRNA in the presence of chemical substance/The level of expressed mRNA in the absence of chemical substance", "setting": "yeast gene YAL044C", "value": 1.1},
      {"measurement": "The level of expressed mRNA in the presence of chemical substance/The level of expressed mRNA in the absence of chemical substance", "setting": "yeast gene YBR291C", "value": 1.0},
      {"measurement": "The level of expressed mRNA in the presence of chemical substance/The level of expressed mRNA in the absence of chemical substance", "setting": "yeast gene YCL009C", "value": 1.6},
      {"measurement": "The level of expressed mRNA in the presence of chemical substance/The level of expressed mRNA in the absence of chemical substance", "setting": "yeast gene YDL067C", "value": 0.6},
      {"measurement": "The level of expressed mRNA in the presence of chemical substance/The level of expressed mRNA in the absence of chemical substance", "setting": "yeast gene YDR268W", "value": 1.0},
      {"measurement": "The level of expressed mRNA in the presence of chemical substance/The level of expressed mRNA in the absence of chemical substance", "setting": "yeast gene YDR377W", "value": 0.7},
      {"measurement": "The level of expressed mRNA in the presence of chemical substance/The level of expressed mRNA in the absence of chemical substance", "setting": "yeast gene YDR529C", "value": 0.7},
      {"measurement": "The level of expressed mRNA in the presence of chemical substance/The level of expressed mRNA in the absence of chemical substance", "setting": "yeast gene YGL068W", "value": 1.0},
      {"measurement": "The level of expressed mRNA in the presence of chemical substance/The level of expressed mRNA in the absence of chemical substance", "setting": "yeast gene YGL187C", "value": 0.7},
      {"measurement": "The level of expressed mRNA in the presence of chemical substance/The level of expressed mRNA in the absence of chemical substance", "setting": "yeast gene YGL191W", "value": 1.1},
      {"measurement": "The level of expressed mRNA in the presence of chemical substance/The level of expressed mRNA in the absence of chemical substance", "setting": "yeast gene YGR029W", "value": 1.0},
      {"measurement": "The level of expressed mRNA in the presence of chemical substance/The level of expressed mRNA in the absence of chemical substance", "setting": "yeast gene YGR112W", "value": 1.1},
      {"measurement": "The level of expressed mRNA in the presence of chemical substance/The level of expressed mRNA in the absence of chemical substance", "setting": "yeast gene YGR220C", "value": 1.1},
      {"measurement": "The level of expressed mRNA in the presence of chemical substance/The level of expressed mRNA in the absence of chemical substance", "setting": "yeast gene YHR037W", "value": 1.1},
      {"measurement": "The level of expressed mRNA in the presence of chemical substance/The level of expressed mRNA in the absence of chemical substance", "setting": "yeast gene YIL070C", "value": 0.7},
      {"measurement": "The level of expressed mRNA in the presence of chemical substance/The level of expressed mRNA in the absence of chemical substance", "setting": "yeast gene YIL094C", "value": 0.7},
      {"measurement": "The level of expressed mRNA in the presence of chemical substance/The level of expressed mRNA in the absence of chemical substance", "setting": "yeast gene YJL096W", "value": 0.7},
      {"measurement": "The level of expressed mRNA in the presence of chemical substance/The level of expressed mRNA in the absence of chemical substance", "setting": "yeast gene YKL150W", "value": 1.8},
      {"measurement": "The level of expressed mRNA in the presence of chemical substance/The level of expressed mRNA in the absence of chemical substance", "setting": "yeast gene YKL194C", "value": 1.1},
      {"measurement": "The level of expressed mRNA in the presence of chemical substance/The level of expressed mRNA in the absence of chemical substance", "setting": "yeast gene YLL001W", "value": 1.7},
      {"measurement": "The level of expressed mRNA in the presence of chemical substance/The level of expressed mRNA in the absence of chemical substance", "setting": "yeast gene YMR023C", "value": 1.1},
      {"measurement": "The level of expressed mRNA in the presence of chemical substance/The level of expressed mRNA in the absence of chemical substance", "setting": "yeast gene YMR203W", "value": 1.1},
      {"measurement": "The level of expressed mRNA in the presence of chemical substance/The level of expressed mRNA in the absence of chemical substance", "setting": "yeast gene YMR267W", "value": 0.7},
      {"measurement": "The level of expressed mRNA in the presence of chemical substance/The level of expressed mRNA in the absence of chemical substance", "setting": "yeast gene YNL284C", "value": 1.0},
      {"measurement": "The level of expressed mRNA in the presence of chemical substance/The level of expressed mRNA in the absence of chemical substance", "setting": "yeast gene YOR187W", "value": 0.7},
      {"measurement": "The level of expressed mRNA in the presence of chemical substance/The level of expressed mRNA in the absence of chemical substance", "setting": "yeast gene YOR316C", "value": 1.6},
      {"measurement": "The level of expressed mRNA in the presence of chemical substance/The level of expressed mRNA in the absence of chemical substance", "setting": "yeast gene YPL215W", "value": 0.7},
      {"measurement": "The level of expressed mRNA in the presence of chemical substance/The level of expressed mRNA in the absence of chemical substance", "setting": "yeast gene YPR134W", "value": 1.1}
    ]}
  ]
}
